Patent US4397842A, “Peptides having thymopoietin-like activity” (Ortho Pharmaceutical Corporation, priority 1981, dated 1983)
Non-standard residues stand in square brackets, D forms with d. Residues, ends and D or L forms follow the SMILES beside them. Sar = CNCC(=O)O

Legend:
prothymocytes = assay: induction in vitro of Thy-1+ T cell differentiation (Komuro and Boyse), acquisition of Thy-1.2 as marker; assay type: cell-based, nu/nu mice; conditions: for biological activity compared with the pentapeptide prepared in Example I: qualitative statement
Procedure: (§1) To determine the activity and characteristics of the polypeptide of Example I, determinations were carried out on healthy 5-6 week nu/nu mice of both sexes, the mice being bred on a BALB/c background (thymocytes expressing Thy-1.2 surface antigen) and maintained under conventional conditions. For the antisera, anti Thy-1.2 sera were prepared in Thy-1 congenic mice.
(§2) For the induction in vitro of Thy-1^+ T cells or CR^+ B cell differentiation, the induction of thymocyte differentiation from prothymocytes in vitro was performed as described by Komuro and Boyse, (Lancet, 1, 740, 1973), using the acquisition of Thy-1.2 as a marker of T cell differentation. The induction of CR^+ B cell differentiation from CR^- B cell precursors in vitro was performed under similar conditions using as the assay criterion, the capacity of CR^+ B cells to bind sheep erythrocytes coated with subagglutinating quantities of rabbit antibody and nonlytic complement. Spleen cell populations from healthy nu/nu mice fractionated on discontinuous bovine serum albumin gradients were used as the source of both precursor types (Thy-1^- and CR^-) because they have few or no Thy-1^+ cells and low numbers of CR^+ cells.

CR^- B cell precursors = assay: induction in vitro of CR+ B cell differentiation from CR- B cell precursors; assay type: cell-based, nu/nu mice; conditions: same concentrations as for T cell induction
Procedure: as §1, §2

| Structure (SMILES) | biological activity compared with the pentapeptide prepared in Example I (prothymocytes) | concentration at which peptide is active (prothymocytes; assay of Example II) [pg/mL] | induction of differentiation of CR+ B cells (CR^- B cell precursors) |
| --- | --- | --- | --- |
| CC(C)[C@H](NC(=O)[C@H](CC(=O)O)NC(=O)[C@@H](C)NC(=O)[C@@H](N)CCCNC(=N)N)C(=O)N[C@@H](Cc1ccc(O)cc1)C(=O)O [III, H--ARG--D--ALA--ASP--VAL--TYR--OH] (H-R[dA]DVY-OH) | same biological activity |  |  |
| CN(CC(=O)N[C@@H](Cc1ccc(O)cc1)C(N)=O)C(=O)[C@H](CC(=O)O)NC(=O)CN(C)C(=O)[C@@H](N)CCCNC(=N)N [IVB, H--ARG--SAR--ASP--SAR--TYR--NH2] (H-R[Sar]D[Sar]Y-NH2) | same biological activity | 0.1 |  |
| CN(CC(=O)N[C@@H](Cc1ccc(O)cc1)C(=O)O)C(=O)[C@H](CC(=O)O)NC(=O)CN(C)C(=O)[C@@H](N)CCCNC(=N)N [IVA, H--ARG--SAR--ASP--SAR--TYR--OH] (H-R[Sar]D[Sar]Y-OH) | same biological activity |  |  |
| CC(C)[C@H](NC(=O)[C@H](CC(=O)O)NC(=O)CN(C)C(=O)[C@@H](N)CCCNC(=N)N)C(=O)N[C@@H](Cc1ccc(O)cc1)C(=O)O [Example I, H--ARG--SAR--ASP--VAL--TYR--OH] (H-R[Sar]DVY-OH) |  |  | did not induce |
| CN(CC(=O)N[C@@H](Cc1ccc(O)cc1)C(=O)O)C(=O)[C@H](CC(=O)O)NC(=O)[C@H](CCCCN)NC(=O)[C@@H](N)CCCNC(=N)N [Example IVC, H--ARG--LYS--ASP--SAR--TYR--OH] (H-RKD[Sar]Y-OH) | same biological activity |  |  |
